From ChEMBL document CHEMBL1144325, “Synthesis and monoamine transporter affinity of new 2beta-carbomethoxy-3beta-[4-(substituted thiophenyl)]phenyltropanes: discovery of a selective SERT antagonist with picomolar potency” (Bioorg Med Chem Lett, 2005)

Legend:
[1] = molecular target: Monoamine transporters; serotonin & dopamine (Rattus norvegicus) (UniProt P31652+P23977); experiment: Selectivity for inhibition of serotonin and dopamine transporters; type: protein assay
[2] = molecular target: Monoamine transporters; Norepinephrine & serotonin (Rattus norvegicus) (UniProt P31652+Q9WTR4); experiment: Selectivity for inhibition of serotonin and norepinephrine transporters; type: protein assay
[3] = molecular target: Sodium-dependent dopamine transporter (Rattus norvegicus, UniProt P23977); experiment: Displacement of [3H]GBR-12935 from dopamine transporter of rat caudate-putamen; type: tissue-based
[4] = molecular target: Norepinephrine transporter (Rattus norvegicus, UniProt Q9WTR4); experiment: Displacement of [3H]nisoxetine from norepinephrine transporter of rat cerebral cortex; type: tissue-based
[5] = molecular target: Sodium-dependent serotonin transporter (Rattus norvegicus, UniProt P31652); experiment: Displacement of [3H]paroxetine from serotonin transporter of rat cerebral cortex; type: tissue-based
Sodium-dependent serotonin transporter, sequence (P31652 whole entry): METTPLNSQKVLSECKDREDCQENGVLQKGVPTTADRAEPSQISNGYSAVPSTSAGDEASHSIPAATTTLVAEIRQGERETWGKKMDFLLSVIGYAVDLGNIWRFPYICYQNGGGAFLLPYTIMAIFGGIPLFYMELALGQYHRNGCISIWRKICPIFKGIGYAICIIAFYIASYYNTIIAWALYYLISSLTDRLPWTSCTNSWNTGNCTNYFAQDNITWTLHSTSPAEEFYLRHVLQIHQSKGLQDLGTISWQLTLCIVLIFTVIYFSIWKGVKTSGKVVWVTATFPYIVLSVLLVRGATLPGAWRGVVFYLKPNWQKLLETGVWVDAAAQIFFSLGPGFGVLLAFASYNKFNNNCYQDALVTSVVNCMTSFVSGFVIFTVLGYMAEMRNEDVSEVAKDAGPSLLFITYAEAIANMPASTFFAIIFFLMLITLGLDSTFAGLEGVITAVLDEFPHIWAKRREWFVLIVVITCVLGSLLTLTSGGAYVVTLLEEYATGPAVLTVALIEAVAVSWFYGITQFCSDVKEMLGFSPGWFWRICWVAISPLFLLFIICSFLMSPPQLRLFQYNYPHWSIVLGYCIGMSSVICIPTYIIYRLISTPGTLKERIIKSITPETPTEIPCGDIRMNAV

Monoamine transporters; serotonin & dopamine (Rattus norvegicus), sequence (P23977 whole entry, looked up): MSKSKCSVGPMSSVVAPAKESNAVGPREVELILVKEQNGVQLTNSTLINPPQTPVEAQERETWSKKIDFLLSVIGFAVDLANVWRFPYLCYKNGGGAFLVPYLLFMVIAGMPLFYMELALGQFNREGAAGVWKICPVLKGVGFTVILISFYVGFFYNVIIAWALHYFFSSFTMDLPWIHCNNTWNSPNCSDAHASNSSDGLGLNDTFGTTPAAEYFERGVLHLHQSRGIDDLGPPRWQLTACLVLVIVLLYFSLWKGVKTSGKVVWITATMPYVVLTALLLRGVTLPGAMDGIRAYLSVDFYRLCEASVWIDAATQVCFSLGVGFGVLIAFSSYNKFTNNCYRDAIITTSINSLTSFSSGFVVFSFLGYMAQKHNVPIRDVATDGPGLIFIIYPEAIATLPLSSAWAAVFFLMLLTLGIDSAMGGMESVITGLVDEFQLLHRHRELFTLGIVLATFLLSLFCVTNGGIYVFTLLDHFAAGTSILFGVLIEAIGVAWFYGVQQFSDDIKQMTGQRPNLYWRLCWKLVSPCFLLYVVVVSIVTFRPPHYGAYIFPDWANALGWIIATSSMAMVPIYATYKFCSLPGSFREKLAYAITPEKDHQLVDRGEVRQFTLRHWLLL
Monoamine transporters; serotonin & dopamine (Rattus norvegicus), sequence (P31652 whole entry, looked up): as the sequence (P31652 whole entry) above
Sodium-dependent dopamine transporter, sequence (P23977 whole entry): as the sequence (P23977 whole entry, looked up) above
Norepinephrine transporter, sequence (Q9WTR4 whole entry): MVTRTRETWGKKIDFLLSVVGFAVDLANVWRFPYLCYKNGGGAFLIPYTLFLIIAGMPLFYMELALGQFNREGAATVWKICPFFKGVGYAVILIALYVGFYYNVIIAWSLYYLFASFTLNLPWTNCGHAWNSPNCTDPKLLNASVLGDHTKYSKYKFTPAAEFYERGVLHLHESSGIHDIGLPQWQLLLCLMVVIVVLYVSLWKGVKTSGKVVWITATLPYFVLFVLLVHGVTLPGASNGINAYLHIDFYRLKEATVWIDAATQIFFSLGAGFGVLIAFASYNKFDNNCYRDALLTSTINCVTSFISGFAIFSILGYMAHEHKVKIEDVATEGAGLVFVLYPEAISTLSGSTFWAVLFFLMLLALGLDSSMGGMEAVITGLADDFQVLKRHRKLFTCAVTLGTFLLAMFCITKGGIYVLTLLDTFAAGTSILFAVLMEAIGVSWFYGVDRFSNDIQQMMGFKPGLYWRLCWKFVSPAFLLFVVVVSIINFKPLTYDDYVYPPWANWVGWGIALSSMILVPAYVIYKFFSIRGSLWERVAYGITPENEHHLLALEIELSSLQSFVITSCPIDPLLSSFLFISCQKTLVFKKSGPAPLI

Row | SMILES | Ratio [1] | Ratio [2] | Ki [3] [nM] | Ki [4] [nM] | Ki [5] [nM]
1 | COC(=O)C1C(c2ccc(I)cc2)CC2CCC1N2C (configuration not stated) | 2.1 | 6.1 | – | – | –
2 | COC(=O)C1C2CCC(CC1c1ccc(-c3ccsc3)cc1)N2 (configuration not stated) | 28 | 170 | 6.4 | 39 | 0.23
3 | COC(=O)C1C(c2ccc(-c3cscc3Br)cc2)CC2CCC1N2C (configuration not stated) | 46 | > 2490 | 183 | > 10000 | 4.02
4 | COC(=O)C1C2CCC(CC1c1ccc(-c3cccs3)cc1)N2 (configuration not stated) | 111 | 685 | 12.2 | 75.3 | 0.11
5 | COC(=O)C1C(c2ccc(-c3cc([N+](=O)[O-])c([N+](=O)[O-])s3)cc2)CC2CCC1N2C (configuration not stated) | > 6 | > 2 | > 30000 | > 10000 | 5000
6 | COC(=O)C1C(c2ccc(-c3ccc(Br)s3)cc2)CC2CCC1N2C (configuration not stated) | 17 | 853 | 6.43 | 324 | 0.38
7 | COC(=O)C1C(c2ccc(-c3cccs3)cc2)CC2CCC1N2C (configuration not stated) | 346 | 1050 | 52 | 158 | 0.15
8 | COC(=O)C1C(c2ccc(-c3ccc(I)s3)cc2)CC2CCC1N2C (configuration not stated) | 4.9 | 249 | 22.1 | 1140 | 4.56
9 | COC(=O)C1C(c2ccc(-c3ccc(N)s3)cc2)CC2CCC1N2C (configuration not stated) | > 155 | > 464 | > 10000 | > 30000 | 64.7
10 | COC(=O)C1C(c2ccc(-c3ccsc3)cc2)CC2CCC1N2C (configuration not stated) | 710 | 11100 | 12.1 | 189 | 0.017
11 | COC(=O)C1C(c2ccc(-c3ccc(Cl)s3)cc2)CC2CCC1N2C (configuration not stated) | 6.9 | 486 | 4.42 | 311 | 0.64
